In PMC7156724, “Potent BRD4 inhibitor suppresses cancer cell-macrophage interaction” (Nature Communications, 2020):
Several values for one entry are separate records, joined by “and”; a condition that tells them apart may be missing. Equal entries are not always repeated.

Assay: In vivo pharmacokinetics study, rat
Set-up: species or system SD rat
Procedure: 4–6 weeks old female BALB/c nude mice were used for most experiments, with the exception of 6–8 weeks old female C57BL/6 mice were used for B16F10 experiments, and 6–8 weeks old male BALB/c nude mice and SD rats were used for pharmacokinetic experiments. All animals were purchased from Shanghai SIPPR-Bk Lab Animal Co., Ltd. All animals were housed under a regimen of 12 h light/12 h dark cycles and specific pathogen-free conditions. 5×10^6 NCI-H526, ES-2, MDA-MB231, A2780, A375, B16F10, and TMD-8 cells (0.1 ml) were injected subcutaneously into female nude mice. The melanoma patient-derived xenograft model was derived from a human melanoma sample (BRAF, NARS and NF1 wild type, and p53 mutant) removed from a patient in Xiangya Hospital. Surgically removed tumor fragments were implanted subcutaneously into female NSG mice. When the tumors grew to ~1000 mm^3, they were harvested and cryopreserved or immediately re-implanted for expansion or experiments. Mouse body weight and tumor sizes were measured every 3 days. Once the tumors grew to 150–200 mm^3, mice were treated with the compounds as described in the Figures. 1 × 10^6 A2780 cells (1 ml) were injected into the abdominal cavity of nude mice. Ascitic volume and tumor weight were measured by an electronic balance. All the procedures were evaluated and approved by the Institutional Animal Care and Use Committee of Central South University and Yale University.
Supplementary Figure 7. Pharmacokinetic profile of NHWD-870 using mouse and rat models.
(a,b) Plasma concentrations of NHWD-870 in healthy (a) mouse and (b) rat after intravenous (IV, 1.75 mg/kg for mouse and 1 mg/kg for rat) and oral (PO, 5 mg/kg) administration. Values shown on the right panels are mean ± SEM from 3 different animals. (c,d) Mean concentrations of NHWD-870 in the lungs (c) and tumors (d) of H526 xenograft model at the indicated hours after oral administration of 3 mg/kg NHWD-870 and BMS-98615821 on day 21. These mice were administrated the indicated drug daily for 21 days. Data are represented as mean ± SEM of 3 independent experiments. Source data are provided as a Source Data file. […]
9. In vivo pharmacokinetics study. Mouse and SD rat models were used to evaluate pharmacokinetic property of NHWD-870. NHWD-870 was administrated […]
Concentration of drugs in plasma, lung and tumor tissues were measured for the indicated time. […]

[1] = male, SD, plasma, iv, 1 mg/kg, IV 1 mg/kg

## Cc1nnn(C)c1-c1cnc2c3c4cnn(C)c4ccc3n([C@H](c3ccccc3)C3CCOCC3)c2c1 [NHWD-870]
IV 1 mg/kg
  AUCExtra: 2.21±0.73%
  AUMCExtra: 11.5±3.025%
IV 1 mg/kg, 1 mg/kg
  Cl: 50 mL/min/kg
  T1/2: 0.9 h
IV bolus, 5 min, individual animals, LLOQ 1.00 ng/mL
  Plasma Conc.: 362 ng/mL and 355 ng/mL
IV bolus, 0.25 h, individual animals, LLOQ 1.00 ng/mL
  Plasma Conc.: 274 ng/mL and 247 ng/mL
IV bolus, 0.5 h, individual animals, LLOQ 1.00 ng/mL
  Plasma Conc.: 208 ng/mL and 167 ng/mL
IV bolus, 1 h, individual animals, LLOQ 1.00 ng/mL
  Plasma Conc.: 98.1 ng/mL and 112 ng/mL
IV bolus, 2 h, individual animals, LLOQ 1.00 ng/mL
  Plasma Conc.: 48.1 ng/mL and 40.3 ng/mL
IV bolus, 4 h, individual animals, LLOQ 1.00 ng/mL
  Plasma Conc.: 8.88 ng/mL and 8.14 ng/mL
IV bolus, 8 h, individual animals, LLOQ 1.00 ng/mL
  Plasma Conc.: BQL
IV bolus, 24 h, individual animals, LLOQ 1.00 ng/mL
  Plasma Conc.: BQL
PO 5 mg/kg
  AUCExtra: 3.97±1.15%
  AUMCExtra: 11.8±2.615%
  Tlast: 8 h
PO, 0.25 h, individual animals, LLOQ 1.00 ng/mL
  Plasma Conc.: 18.8 ng/mL and 13.3 ng/mL
PO, 0.5 h, individual animals, LLOQ 1.00 ng/mL
  Plasma Conc.: 58.3 ng/mL and 33.9 ng/mL
PO, 1 h, individual animals, LLOQ 1.00 ng/mL
  Plasma Conc.: 117 ng/mL and 106 ng/mL and 54.6 ng/mL
PO, 2 h, individual animals, LLOQ 1.00 ng/mL
  Plasma Conc.: 111 ng/mL and 73.5 ng/mL
PO, 4 h, individual animals, LLOQ 1.00 ng/mL
  Plasma Conc.: 48.1 ng/mL and 45.9 ng/mL
PO, 6 h, individual animals, LLOQ 1.00 ng/mL
  Plasma Conc.: 20.2 ng/mL and 15.9 ng/mL and 50.5 ng/mL
PO, 8 h, individual animals, LLOQ 1.00 ng/mL
  Plasma Conc.: 6.96 ng/mL and 4.35 ng/mL and 9.56 ng/mL
PO, 24 h, individual animals, LLOQ 1.00 ng/mL
  Plasma Conc.: BQL
male, SD, plasma, IV 1 mg/kg
  AUC(0-inf): 331 ± 6.45 ng·h/mL
  AUC(0-t): 323 ± 5.55 ng·h/mL
  C0: 441 ± 17.9 ng/mL
  MRT inf: 1.08 ± 0.021 h
  MRT last: 0.98 ± 0.045 h
male, SD, plasma, IV 1 mg/kg, read-out: Vdss
  Vd: 3.27 ± 0.0925 L/kg
male, SD, plasma, PO 5 mg/kg
  AUC(0-inf): 398 ± 9.15 ng·h/mL
  AUC(0-t): 382 ± 12.6 ng·h/mL
  Cmax: 101 ± 11.8 ng/mL
  MRT inf: 3.28 ± 0.33 h
  MRT last: 3 ± 0.256 h
  Tmax: 1.67 ± 0.288 h
male, SD, plasma, PO 5 mg/kg, calculated using AUCinf with nominal dose
  bioavailability: 24%
[1]
  clearance: 50.4 ± 0.965 mL/min/kg
  half-life: 0.92 ± 0.0805 h
male, SD, plasma, iv, 1 mg/kg, IV bolus, 5 min, individual animals, LLOQ 1.00 ng/mL, read-out: Plasma Conc.
  concentration at 5 min: 392 ng/mL
male, SD, plasma, iv, 1 mg/kg, IV bolus, 0.25 h, individual animals, LLOQ 1.00 ng/mL, read-out: Plasma Conc.
  concentration at 0.25 h: 259 ng/mL
male, SD, plasma, iv, 1 mg/kg, IV bolus, 0.5 h, individual animals, LLOQ 1.00 ng/mL, read-out: Plasma Conc.
  concentration at 0.5 h: 168 ng/mL
male, SD, plasma, iv, 1 mg/kg, IV bolus, 1 h, individual animals, LLOQ 1.00 ng/mL, read-out: Plasma Conc.
  concentration at 1 h: 96.1 ng/mL
male, SD, plasma, iv, 1 mg/kg, IV bolus, 2 h, individual animals, LLOQ 1.00 ng/mL, read-out: Plasma Conc.
  concentration at 2 h: 39 ng/mL
male, SD, plasma, iv, 1 mg/kg, IV bolus, 4 h, individual animals, LLOQ 1.00 ng/mL, read-out: Plasma Conc.
  concentration at 4 h: 8.15 ng/mL
male, SD, plasma, iv, 1 mg/kg, IV bolus, 8 h, individual animals, LLOQ 1.00 ng/mL, read-out: Plasma Conc.
  concentration at 8 h: 1.09 ng/mL
male, SD, plasma, po, 5 mg/kg, PO 5 mg/kg
  half-life: 1.48 ± 0.155 h
